Values after ≈ are worked out from the molar mass of the structure shown. Read-outs that look alike come from different tables or passages of the source.
Tests used:
[1] = test system: green rice leafhoppers (Nephotettix cincticeps Uhler); test: Mortality test with green rice leafhoppers by topical application method; settings: Nephotettix cincticeps, in Oryza sativa, 24 h
Protocol: Mortality test with green rice leafhoppers (Nephotettix cincticeps Uhler) by topical application method
Then, the insects were kept at 25° C. with access to rice plant seedlings. The insects were used in groups of 15 individuals each.

carp and water flea = test: Fish toxicity ranking according to Japanese regulations; set-up: species or system Cyprinus carpio L; Daphnia pulex; settings: from TLm for carp and water flea
Protocol: The above ranking with symbols A, B and C were determined according to Japanese regulations relative to application of agricultural chemicals, and these symbols are defined as follows: […]
A: TLm (48 hrs.) value >10 ppm for carp and TLm (3 hrs.) value >0.5 ppm for water flea, wherein toxicity to fishes is not observed by usual application.
B: TLm (48 hrs.) value 10-0.5 ppm for carp; or TLm (48 hrs.) value >10 ppm for carp and TLm (3 hrs.) value <0.5 ppm for water flea, wherein appreciable toxicity to fishes is not observed by usual application but may be observed when applied to wide area at one time.
C: TLm (48 hrs.) value <0.5 ppm for carp, wherein toxicity to fishes is so strongly observed by usual application that both the application method and application area are strictly restricted.

[2] = Fish toxicity safety factor (TLm divided by maximum concentration in cover water); set-up: species or system carp; settings: in vivo, TLm / maximum concentration in cover water at LC50 application (100 l per 10 ares, 5 cm depth)
Protocol: To further confirm the low toxicity to fish and high pesticidal activity of Compounds (1) and (2) according to this invention as evidenced by the fish toxicity tests with carps and the above tests, fish toxicity safety factors were calculated from the fish toxicity and pesticidal test data. These fish toxicity safety factors are indicators of safety to fish inhabiting a paddy field to which Compounds (1) and (2) may be actually applied for pest control purposes.
It is first assumed that such a pesticidal solution would normally be applied at the rate of 100 l per 10 ares of paddy field. It is also assumed that a solution (100 l) corresponding to the LC50 of the compounds would be applied to 10 ares of a paddy field carrying a cover water with a depth of 5 cm above ground surface and that all the solution would then find its way into the cover water. The expected maximum concentration of the compound in the cover water is then calculated. The fish toxicity safety factor of a pesticidal compound is defined as the value obtained by dividing the TLm (ppm) of the particular compound by the maximum concentration of the compound in cover water. The meaning of the value of the fish toxicity safety factor being one (1) is that the maximum concentration of the particular compound in cover water corresponds to the TLm of said compound. It is understood that when the pesticidal compound having a fish toxicity safety factor value of less than one (1) is applied to a paddy field, it has a risk of destroying the fish inhabiting there, and that the higher the safety factor value, the higher is the safety of the compound to fish.
This fish toxicity safety factor will now be explained in further detailed by taking the trans-isomer of Compound (2) of this invention as an example.
On the other hand, the toxicity to fish of this compound is TLm >10 ppm. Therefore, by dividing the TLm (i.e. >10 ppm) by the above cover water maximum concentration (i.e. 0.36 ppm), we obtain a fish toxicity safety factor of >28. Thus, the concentration of the trans-isomerof Compound (2) which kills 50% of pests corresponds to less than 1/28 of the concentration of the same isomer which kills 50% of fish. In other words, this means that the trans-isomer of Compound (2) is extremely safe to fish.

[3] = Fish toxicity test with carp; assay type: in vivo, Cyprinus carpio L; settings: carp, water, 48 hrs., 21±1° C.; read-out: TLm, Carp (48 hrs.)
Protocol: Fish toxicity test with carp (Cyprinus carpio L)
An acetone solution of one of the test compounds as mentioned in Table 10 and Tween-20 (the same surfactant as mentioned hereinbefore) was prepared. To 50 liters of water (30 cm deep) in a glass tank was added the above acetone solution. The mixture was stirred thoroughly to prepare an aqueous solution containing the test compound in a predetermined concentration. This was used as a test water. Five carps (Cyprinus carpio L) with a body weight of about 6 g and a body length of about 6 cm were released into each test water which was maintained at 21±1° C. After 48 hours, the test fish was examined for death. The TLm (median tolerance limit, ppm) was determined. The test water was moderately aerated.

[4] = Acute toxicity test in rat by the oral route; assay type: in vivo; settings: in vivo, male rat, in olive oil, after 7 days
Excerpt: Acute toxicity test in rat by the oral route

[5] = test system: houseflies (Musca domestica); test: Mortality test with houseflies by topical application method; settings: 24 h
Protocol: Mortality test with houseflies (Musca domestica) by topical application method
Each of the compounds according to this invention and the control compounds (Table 2) was accurately weighted and a 0.1% solution of each sample in acetone was prepared. Female adult houseflies (Musca domestica) resistant to organophosphorus pesticides, were anesthetized with ether and 0.5 μl or 1.0 μl of the above solution was micropipetted onto the prothoracic dorsal region of each insect. The insects were then put in a high-walled dish together with feed and the dish was covered with a wire-mesh cover and kept at a temperature of 25° C. The test insects were used in groups of 30 individuals each. After 24 hours the insects were examined for deaths and the percent mortality was calculated.

[6] = test system: rice stem borers (Chilo suppressalis Walker); test: Mortality test with rice stem borers by topical application method; assay type: in vivo; settings: 24 h
Protocol: Mortality test with rice stem borers (Chilo suppressalis Walker) by topical application method
Using a microsyringe, 0.5 μl of the above solution was applied to the thoracic abdominal region of each final-instar larva of rice stem borer (Chilo suppressalis Walker). […] The test larvae were used in groups of 20 individuals each.

[7] = Fish toxicity test with killifish; assay type: in vivo, Orizias latipes; settings: water, killifish, 25±1° C., read-out: TLm (48 hrs.)
Protocol: Fish toxicity test with killifish (Orizias latipes)
An acetone solution of one of the test compounds as mentioned in Table 8 was prepared by adding said test compound to 15 ml of acetone. To 10 liters of water was added a predetermined amount of the above acetone solution and the mixture was stirred thoroughly to prepare an aqueous solution containing the test compound in a predetermined concentration. This was used as a test water. After the each test water was moderately aerated, ten killifishes (Orizias latipes) with a body weight of about 0.25 g and a body length of about 2.5 cm were released into said each test water which was maintained at 25±1° C. After 48 hours, the test fish was examined for death. The TLm (median tolerance limit, ppm) was determined.

[8] = Fish toxicity test with guppies; assay type: in vivo, Lebistes reticulatus; settings: guppy, water, guppies, 20° C., read-out: TLm (48 hrs.)
Protocol: (§1) Fish toxicity test with guppies (Lebistes reticulatus)
(§2) To 5 liters of water were added 250 mg of Sorpol SM-200 (trademark, Toho Chemical Co., Ltd.) as a surfactant and 2.5 ml of an acetone solution containing one of the test compounds in a predetermined concentration. The mixture was stirred thoroughly to prepare a test water. Ten female guppies (Lebistes reticulatus) of from 3 to 4 months of age were released into the test water which was maintained at 20° C. and the TLm (median tolerance limit, ppm) was determined.

[9] = test system: guppies (Lebistes reticulatus); test: Fish toxicity test with guppies; assay type: in vivo; settings: Table 1; 48 hrs.
Protocol: as §1, §2

[10] = test system: tobacco cutworms (Prodenia litura Fabricius); test: Mortality test with tobacco cutworms by topical application method; assay type: in vivo; settings: 24 h
Protocol: Mortality test with tobacco cutworms (Prodenia litura Fabricius) by topical application method
Using a microsyringe, 0.5 μl of the above solution was dripped onto the thoracic adbominal region of each of 3-instar tobacco cutworm (Prodenia litura Fabricius) larvae. […] The test larvae were used in groups of 20 individuals each.

[11] = test system: brown planthoppers (Nilaparvata lugens Stal); test: Utility Example-1: LC50 on adult brown planthoppers on dipped rice plants; assay type: in vivo; settings: Nilaparvata lugens, 24 h, 25° C., read-out: Pesticidal activity LC50
Protocol: A 1% emulsifiable concentrate of each test compound as prepared by the procedure described in Formulation Example 2 was diluted with water to prepare a test solution of predetermined concentration.
Rice plants, 4 weeks after sowing (cultivated in a pot 6 cm in diameter, 7 seedlings) were dipped in the above solution and after allowing them to dry in the air, the pot was covered with a wire-mesh cage. Then, 30 adult brown planthoppers (Nilaparvata lugens Stal) were released into the cage and the pot was kept in a constant-temperature chamber at 25° C.

[12] = test system: green rice leafhoppers (Nephotettix cincticeps Uhler); test: Utility Example-2: spray on rice plants, green rice leafhoppers; assay type: in vivo; settings: 7 ml/pot, 24 hours
Protocol: A 30% emulsifiable concentrate of each of the cis- and trans-isomers and a 50:50 mixture of the cis- and trans-isomers of Compound (1) and Compound (2) as prepared by the procedure described in Formulation Example-1 was diluted with water to a concentration of 80 ppm as active compound. Rice plants 4 weeks after sowing in pots (each pot 6 cm in diameter, 7 seedlings) were sprayed with the above solution at the rate of 7 ml/pot and, after drying in the air, each pot was covered with a wire-mesh cage. Then, 20 female adult green rice leafhoppers (Nephotettix cincticeps Uhler) were released into the cage. The caged pots were kept in a constant-temperature chamber at 25° C. […] In all groups, the mortality values were not less than 90%.

[13] = test system: brown planthoppers (Nilaparvata lugens); test: Utility Example-7: 0.5% dust on rice seedlings, brown planthoppers; assay type: in vivo; settings: 1 kg per 10 ares, 24 hours
Excerpt: A 0.5% dust preparation of each of the cis- and trans-isomers and a 50:50 mixture of the cis- and trans-isomers of Compound (1) and of Compound (2) as prepared by the procedure described in Formulation Example-4 was applied to rice seedlings, on which 30 adult brown planthoppers (Nilaparvata lugens) were released, by means of a bell-jar duster at the rate of 1 kg per 10 ares. […] In all cases, the mortality was not less than 90%.

[14] = test system: green rice leafhoppers (Nephotettix cincticeps); test: Utility Example-6: 0.5% dust on rice seedlings, green rice leafhoppers; assay type: in vivo; settings: 1 kg per 10 ares, 24 hours, resistant to organophosphorus and carbamate pesticides
Excerpt: A 0.5% dust preparation of each of the cis- and trans-isomers and a 50:50 mixture of the cis- and trans-isomers of Compound (1) and of Compound (2) as prepared by the procedure described in Formulation Example-4 was applied to rice seedlings by means of a bell-jar duster at the rate of 1 kg per 10 ares. Then, 30 green rice leafhoppers (Nephotettix cincticeps) resistant to organophosphorus and carbamate pesticides were released. […] In all cases, the mortality was not less than 90%.

[15] = test system: green rice leafhoppers (Nephotettix cincticeps Uhler); test: Utility Example-4: 0.2% dust on rice seedlings, green rice leafhoppers; assay type: in vivo; settings: 5 kg per 10 ares, 24 hours, resistant to organophosphorus and carbamate pesticides
Excerpt: A 0.2% dust preparation of each of the cis- and trans-isomers and a 50:50 mixture of the cis- and trans-isomers of Compound (1) and of Compound (2) as prepared by the procedure described in Formulation Example-3 was applied to rice seedlings by means of a bell-jar duster at the rate of 5 kg per 10 ares. […] In all cases, the mortality was not less than 90%.

[16] = test system: small brown planthoppers (Laodelphax striatellus Fallen); test: Utility Example-3: spray on rice plants, small brown planthoppers; assay type: in vivo; settings: 7 ml/pot, 24 hours
Protocol: A 30% emulsifiable concentrate of each of the cis- and trans-isomers and a 50:50 mixture of the cis- and trans-isomers of Compound (1) and of Compound (2) as prepared by the procedure described in Formulation Example-1 was diluted with water to a concentration of 80 ppm as active compound. Rice plants 4 weeks after sowing in pots (each pot 6 cm in diameter, 7 seedlings) were sprayed with the above diluted solution at the rate of 7 ml/pot and, after drying in the air, each pot was covered with a wire-mesh cage. Then, 30 adult small brown planthoppers (Laodelphax striatellus Fallen) were released into the cage. The pots were kept in a constant-temperature chamber at 25° C. […] In all groups, the mortality was not less than 90%.

[17] = test system: two-spotted spider mites (Tetranychus urticae Koch); test: Mortality test with two-spotted spider mites by spray application method; assay type: in vivo; settings: 48 h, 200 ppm spray, two days, read-out: Percent decrease of population (%)
Protocol: Mortality test with two-spotted spider mites (Tetranychus urticae Koch) by spray application method
To a 5% aqueous solution of acetone was added dropwise a small amount of Tween-20 (polyethylene sorbitan monolaurate) as a surfactant. […] From 30 to 50 adult two-spotted spider mites (Tetranychus urticae Koch) were released on the leaves of kidney-bean plants in the dicotyledonous stage in a pot 9 cm in diameter, followed by a spray application of the above solution. The pot was kept in a constant-temperature chamber at 26° C. and two days later the mites were examined for deaths. The percent decrease of population was then calculated.

CC1(C)C(C=C(Cl)Cl)C1C(=O)OC(C#N)c1cccc(Oc2ccccc2)c1 (stereo not shown) [Compound (C), Cypermethrin]
mortality at 0.01 µg/female [1]: 100% | mortality at 0.1 µg/female [1]: 100% | mortality at 1 µg/female [1]: 100% | mortality at 10 ng ([1]; read-out: Pesticidal effect, green rice leafhopper): 100% | Ranking (carp and water flea): C (TLm (48 hrs.) value <0.5 ppm for carp, wherein toxicity to fishes is so strongly observed by usual application that both the application method and application area are strictly restricted.) | selectivity ratio [2]: 0.01 | LC50 at 48 h [3]: 4.5 ng/mL (≈ 0.0108 µM) | LD50 at 168 h [4]: 310 mg/kg | mortality at 0.5 µg/female [5]: 100% | mortality at 1 µg/female [5]: 100% | mortality at 0.001 mg ([5]; read-out: Pesticidal effect, housefly): 100% | mortality at 1 µg/larva [6]: 95% | mortality at 10 µg/larva [6]: 100% | mortality at 0.001 mg ([6]; read-out: Pesticidal effect, rice stem borer): 95% | LC50 at 48 h [7]: 0.026 µg/mL (≈ 0.0625 µM) | LC50 at 48 h [8]: < 0.5 µg/mL | Toxicity to fish TLm, guppy [9]: < 0.5 ppm | mortality at 0.0001 mg ([10]; read-out: Pesticidal effect, tobacco cutworm): 100% | LC50 [11]: 210 µg/mL (≈ 504 µM)

CC1(C)[C@H](C=C(Cl)Cl)[C@@H]1C(=O)OCc1cccc(Oc2ccc(Cl)cc2)c1 (relative stereo) [Compound (1) cis-, 3-(4-chlorophenoxy)benzyl cis-2,2-dimethyl-3-(2,2-dichlorovinyl)cyclopropanecarboxylate]
mortality at 80 ppm [12]: ≥ 90% | mortality at 0.5 µg/female [5]: 100% | mortality at 1 µg/female [5]: 100% | mortality at 1 µg/larva [6]: 100% | mortality at 10 µg/larva [6]: 100% | mortality [13]: not less than 90% | LC50 at 48 h [7]: > 10 µg/mL | mortality [14]: not less than 90% | mortality [15]: not less than 90% | mortality at 80 ppm [16]: ≥ 90% | mortality at 0.0001 mg [10]: 100% | mortality at 200 ppm [17]: 100%

Reference: patent US4389412A, “Substituted cyclopropanecarboxylic acid esters and pesticidal compositions containing the same as active ingredient” (priority 1979, dated 1983)
